pEC50: −log10 of the molar value. Read-outs that look alike come from different tables or passages of the source.
Columns and labels:
[1] = Evaluation of therapeutic index in rats: 5 or 14 day toxicology study, lung to body weight ratio; assay type: in vivo, Sprague-Dawley rat; conditions: for Dose Resulting in 10% increase in lung weight: rats, oral, 5 or 14 consecutive days, interpolated from dose versus lung to body weight; for TI 5 days: 5 day toxicology study in rats
Method: All studies were conducted in non-fasted male and female Sprague-Dawely rats (Simonsen Laboratories). Rats were housed in an AAALAC accredited facility and the research was approved by the facilities Institutional Animal Care and Use Committee (IACUC). The animals were acclimated to the laboratory for at least 5 days prior to initiation of experiments.
(§1) The compounds listed in Table 6 were formulated as suspensions in a vehicle consisting of 0.5% carboxymethyl cellulose (Acros Organics) in purified water (pH adjusted to ˜2.2 with hydrochloric acid). The same formulation was used in the rat lymphopenia and toxicology studies described below. The concentration of each compound in suspension was verified to be within ±10% of the target concentration by HPLC-UV.
In the toxicology studies, three male and three female rats per group were assigned to dosing groups using body weight based randomization. A control group in each study received vehicle. All animals were dosed orally by gavage on 5 or 14-consecutive days at a dose volume of 5 mL/kg/day. The animals were observed daily for any manifestations of adverse effect. Twenty-four hours after the final study dose, the rats were anesthetized with isoflurane and a terminal blood sample was taken by intra-cardiac puncture for hematology and clinical chemistry evaluation (IDEXX Laboratories, Sacramento, Calif.). The lungs with trachea were collected, weighed, and then prepared for histology by perfusion with 10% neutral buffered formalin via the trachea. The internally fixed lungs were then preserved in 10% neutral buffered formalin and submitted for histological examination (IDEXX).
The dose of each compound resulting in a 10% increase in the lung to terminal body weight ratio was estimated for each compound by linear interpolation. The therapeutic index was estimated as the ratio of the dose producing 10% lung weight increase to the dose producing 50% T-Cell depletion.
(§2) The dose producing a 10% increase in lung to body weight ratio was interpolated from a plot of dose versus lung to body weight. The lymphopenia response was measured 24 hours following the final dose of a 3-5 day multiple dose regimen.

S1P1/EDG1 = S1P1/EDG1 (Homo sapiens, UniProt P21453); test: S1P1 CRE-bla CHOK1 reporter assay, inhibition of Forskolin induced cAMP; assay type: cell-based
Chain of S1P1/EDG1 (P21453 whole entry): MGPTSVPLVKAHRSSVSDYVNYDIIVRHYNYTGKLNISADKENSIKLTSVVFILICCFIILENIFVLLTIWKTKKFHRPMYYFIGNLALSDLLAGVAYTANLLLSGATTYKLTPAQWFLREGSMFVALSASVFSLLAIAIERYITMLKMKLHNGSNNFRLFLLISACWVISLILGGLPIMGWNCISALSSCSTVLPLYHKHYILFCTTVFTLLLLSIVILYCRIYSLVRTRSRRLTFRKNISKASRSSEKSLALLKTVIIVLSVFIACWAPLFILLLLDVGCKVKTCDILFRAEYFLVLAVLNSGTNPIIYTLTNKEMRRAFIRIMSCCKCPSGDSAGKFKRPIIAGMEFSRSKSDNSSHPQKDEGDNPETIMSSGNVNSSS
Summary of the method: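 Read-out is a FRET β-lactamase substrate (2 h, room temperature) after 4 h, 37 °C compound treatment under 2 μM Forskolin in stable S1P1-transfected CRE-bla CHO-K1 cells. Ten-point curves; non-linear regression gives EC50 for inhibition of Forskolin-stimulated cAMP.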

S1P2 = target: T1, S1P2 (Homo sapiens, UniProt O95136); test: Specificity over other S1P receptors: S1P2 CRE-bla CHOK1 reporter assay; assay type: cell-based; conditions: S1P2 CRE-bla CHOK1, without Forskolin; read-out: S1P2 agonist value (EC50)
T1 construct: expressed in transfected cells; host or cells: CRE-bla CHOK1
T1 sequence (O95136 whole entry, species assumed): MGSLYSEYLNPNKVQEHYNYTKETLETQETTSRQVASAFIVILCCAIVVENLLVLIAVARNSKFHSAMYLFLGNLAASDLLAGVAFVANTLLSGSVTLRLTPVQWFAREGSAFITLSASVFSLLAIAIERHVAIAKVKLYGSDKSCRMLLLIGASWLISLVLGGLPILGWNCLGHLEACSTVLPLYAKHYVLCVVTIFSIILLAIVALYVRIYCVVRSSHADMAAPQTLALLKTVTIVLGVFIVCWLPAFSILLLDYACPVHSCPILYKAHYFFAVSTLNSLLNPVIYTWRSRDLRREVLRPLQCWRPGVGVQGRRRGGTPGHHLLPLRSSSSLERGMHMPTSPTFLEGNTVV
Method: (§3) Cells were seeded into 384-well black wall/clear bottom plates at 10^4 cells/well/19.5 μl assay media (DMEM-phenol free, 0.5% charcoal/dextran stripped serum, 2 mM glutamine, 0.1 mM NEAA, 1 mM Na-Pyruvate, 25 mM Hepes) and incubated for 18 hrs at 37° C. in 5% CO2. Dose response curves (10-point) were generated in 10 mM Hepes, 0.1% Pluronic F127, in the presence of Forskolin. Cells were treated with 0.5 μl compound in the presence of 2 μM Forskolin for 4 hrs at 37° C. The FRET-based β-lactamase fluorescent substrate (LiveBLAzer™-FRET B/G Loading Kit CC4-AM; Invitrogen) was prepared according to manufacturer's directions, and incubated with cells for 2 hrs at room temperature. Plates were read at Ex:410/Em:458 and Ex:410/Em:522, and the response ratio determined. Data was analyzed by non-linear regression to determine the EC50 for inhibition of Forskolin induced cAMP.
(§4) To assess compound specificity on other S1P receptors the following cell lines were used: S1P2 CRE-bla CHOK1, S1P3-Gα15 NFAT-bla HEK293T (Invitrogen), S1P4-bla TANGO U2OS (Invitrogen), S1P5-bla TANGO U2OS (Invitrogen). The same assay set up for S1P1 was used but without Forskolin. S1P4 and S1P5 assays were performed in FreeStyle Expression medium (Invitrogen). S1P5 cells were incubated for 48 hrs in prior to treatment with compound.

S1P4 = target: T2, S1P4 (Homo sapiens, UniProt O95977); test: Specificity over other S1P receptors: S1P4-bla TANGO U2OS assay; assay type: cell-based; conditions: read-out: S1P4 agonist value (EC50)
T2 construct: Tango fusion (own knowledge: protease cleavage site plus GAL4-VP16 transcription factor at the receptor's C-terminus); host or cells: U2OS (Tango -bla)
T2 sequence (O95977 1-384): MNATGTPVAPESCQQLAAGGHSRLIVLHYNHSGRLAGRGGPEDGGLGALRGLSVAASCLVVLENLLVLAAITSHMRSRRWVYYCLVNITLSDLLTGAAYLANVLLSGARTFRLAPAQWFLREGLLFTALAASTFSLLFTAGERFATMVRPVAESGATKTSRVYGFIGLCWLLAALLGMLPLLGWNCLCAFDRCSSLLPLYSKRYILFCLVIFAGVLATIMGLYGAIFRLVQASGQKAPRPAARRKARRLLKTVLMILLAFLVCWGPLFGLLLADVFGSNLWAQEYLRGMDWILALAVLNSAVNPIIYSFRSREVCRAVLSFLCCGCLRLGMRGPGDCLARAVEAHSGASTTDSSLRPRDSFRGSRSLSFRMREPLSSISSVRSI
Method: as §3, §4

S1P3 = target: T3, S1P3 (Homo sapiens, UniProt Q99500); test: Specificity over other S1P receptors: S1P3-Gα15 NFAT-bla HEK293T reporter assay; assay type: cell-based; conditions: without Forskolin, read-out: S1P3 agonist value (EC50)
T3 construct: host or cells: NFAT-bla HEK293T
T3 sequence (Q99500 whole entry): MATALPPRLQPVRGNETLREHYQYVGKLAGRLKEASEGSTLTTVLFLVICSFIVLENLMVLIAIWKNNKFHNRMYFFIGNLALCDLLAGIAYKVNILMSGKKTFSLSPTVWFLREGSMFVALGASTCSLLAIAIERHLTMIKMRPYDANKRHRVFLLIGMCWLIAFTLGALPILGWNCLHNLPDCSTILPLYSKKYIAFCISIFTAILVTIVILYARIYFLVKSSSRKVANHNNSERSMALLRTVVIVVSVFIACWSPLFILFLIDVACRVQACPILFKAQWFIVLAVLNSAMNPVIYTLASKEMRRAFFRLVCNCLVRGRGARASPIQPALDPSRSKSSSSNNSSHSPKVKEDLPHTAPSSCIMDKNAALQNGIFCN
Method: as §3, §4

S1P5 = target: T4, S1P5 (Homo sapiens, UniProt Q9H228); test: Specificity over other S1P receptors: S1P5-bla TANGO U2OS assay; assay type: cell-based; conditions: read-out: S1P5 agonist value (EC50)
T4 construct: Tango fusion (own knowledge: protease cleavage site plus GAL4-VP16 transcription factor at the receptor's C-terminus); host or cells: U2OS (Tango -bla)
T4 sequence (Q9H228 whole entry, the tested form may be a part): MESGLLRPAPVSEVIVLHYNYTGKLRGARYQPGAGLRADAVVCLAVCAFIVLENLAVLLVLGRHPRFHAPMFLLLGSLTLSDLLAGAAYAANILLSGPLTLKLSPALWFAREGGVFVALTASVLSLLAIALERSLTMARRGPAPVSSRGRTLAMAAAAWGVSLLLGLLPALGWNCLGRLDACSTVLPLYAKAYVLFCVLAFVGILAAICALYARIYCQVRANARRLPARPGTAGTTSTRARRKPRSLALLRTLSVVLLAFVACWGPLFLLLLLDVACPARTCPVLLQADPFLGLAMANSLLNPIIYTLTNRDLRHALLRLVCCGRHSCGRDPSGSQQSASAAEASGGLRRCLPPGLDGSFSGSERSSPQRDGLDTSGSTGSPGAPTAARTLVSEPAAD
Method: as §3, §4

peripheral T-cell counts = test: Lymphopenia in rats, 3-5 day multiple dose regimen; assay type: in vivo, rat; conditions: female rats, oral, 24 h after final dose of a 3-5 day multiple dose regimen
Method: In rats: Female rats (Simonsen Laboratories, Gilroy Calif.) were housed in an ALAAC accredited facility and the research was approved by the facilities Institutional Animal Care and Use Committee (IACUC). The animals were acclimated to the laboratory for at least 5 days prior to initiation of experiments. Rats (n=3/compound/time-point) were dosed by oral gavage with 1 mg/kg compound formulated in a vehicle consisting of 5% DMS0/5% Tween 20 and 90% 0.1N HCL. Control rats were dosed PO with the vehicle. Whole blood was collected from isoflurane anesthetized rats via the retro-orbital sinus and terminal samples were collected by cardiac puncture into EDTA. Whole blood was incubated with mouse anti-rat CD32 (BD #550271), PE-mouse anti-rat CD45R/B220 (BD #554881), PECy5-mouse anti-rat CD4 (BD #554839), and APC-mouse anti-rat CD8a (eBioscience #17-0084) for 30 minutes on ice. Red blood cells were lysed using BD Pharm Lyse Lysing buffer (#555899) and white blood cells were analyzed with a BD FACSArray. Lymphopenia was expressed as the % of white blood cells that were CD4 or CD8 positive T cells. The overall lymphopenia response over 24 h was estimated by calculating the area under the effect curve (AUEC) using the linear trapezoidal rule.
as §1
Prior to the conduct of toxicology studies, the effect of three to five daily doses of each compound on peripheral T-cell counts of female rats was determined (see lymphopenia measurements in rats above). In these lymphopenia studies, blood samples were collected onto EDTA at intervals after the final study dose. The collection times were not identical for each study, however, all studies included a sample collected 24 hours after the final dose. The lymphopenia data was used as a biomarker to select equally pharmacologically active doses for the subsequent toxicology study. […] The high dose in the toxicology study represented a ≧20-fold increment over the low dose.
as §2

[2] = therapeutic index: dose producing 10% lung weight increase / dose producing 50% T-cell depletion
[3] = S1P1 CRE-bla CHOK1, with Forskolin, read-out: S1P1 agonist value (EC50)
[4] = agonist activity range, S1P1 CRE-bla CHOK1, 2 μM Forskolin, read-out: S1P1 ACTIVITY

Row | Compound | Dose Resulting in 10% increase in lung weight [1] | TI 5 days [1, 2] | pEC50 (S1P1/EDG1; [3]) | pEC50 (S1P1/EDG1; [4]) | pEC50 (S1P2) | pEC50 (S1P4) | pEC50 (S1P3) | pEC50 (S1P5) | Dose Producing 50% lymphopenia (peripheral T-cell counts) | TI 14 days ([1]; therapeutic index: dose producing 10% lung weight increase / dose producing 50% T-cell depletion, 14 day toxicology study in rats)
1 | CC(C)Oc1ccc(-c2nc(-c3cccc4c3CC[C@@H]4NC(=O)N3CC(O)C3)no2)cc1C#N [Compound 235] | 11.3 mg/kg | 6 | 10.00 | 9.30 to 10.30 | < 5.00 | < 5.00 | < 5.00 | 7.40 | 2.00 mg/kg | –
2 | CC(C)Oc1ccc(-c2nc(-c3cccc4c3CC[C@@H]4NS(=O)(=O)CCO)no2)cc1C#N [Compound 187, (S)-N-(4-(5-(3-cyano-4-isopropoxyphenyl)-1,2,4-oxadiazol-3-yl)-2,3-dihydro-1H-inden-1-yl)-2-hydroxyethanesulfonamide] | 5.0 mg/kg | 10 | 10.00 | 9.30 to 10.30 | < 5.00 | < 5.00 | < 5.00 | 7.24 | 0.50 mg/kg | –
3 | COCCS(=O)(=O)N[C@H]1CCc2c(-c3noc(-c4ccc(OC(C)C)c(C#N)c4)n3)cccc21 [Compound 164, (S)-N-(4-(5-(3-cyano-4-isopropoxyphenyl)-1,2,4-oxadiazol-3-yl)-2,3-dihydro-1H-inden-1-yl)-2-methoxyethanesulfonamide] | 5.0 mg/kg | 20 | 9.44 | 9.30 to 10.30 | < 5.00 | < 5.00 | < 5.00 | 6.76 | 0.25 mg/kg | –
4 | CC(C)Oc1ccc(-c2nc(-c3cccc4c3CC[C@H]4NS(=O)(=O)CCO)no2)cc1C#N [Compound 186, (R)-N-(4-(5-(3 cyano-4-isopropoxyphenyl)-1,2,4-oxadiazol-3-yl)-2,3-dihydro-1H-inden-1-yl)-2-hydroxyethanesulfonamide] | 1.1 mg/kg | 16 | 10.30 | 9.30 to 10.30 | 5.80 | 5.92 | < 5.00 | 7.49 | 0.07 mg/kg | –
5 | COCCS(=O)(=O)N[C@@H]1CCc2c(-c3noc(-c4ccc(OC(C)C)c(C#N)c4)n3)cccc21 [Compound 163, (R)-N-(4-(5-(3 cyano-4-isopropoxyphenyl)-1,2,4-oxadiazol-3-yl)-2,3-dihydro-1H-inden-1-yl)-2-methoxyethanesulfonamide] | 2.1 mg/kg | – | 10.05 | 9.30 to 10.30 | < 5.00 | < 5.00 | < 5.00 | 7.30 | 0.07 mg/kg | 30
6 | CCOc1ccc(-c2nc(-c3cccc4c3CCC4NCCO)no2)cc1OCC (racemic) [Compound 253, (+/−)-2-((4-(5-(3,4,diethoxyphenyl)-1,2,4-oxadiazol-3-yl)-2,3-dihydro-1H-inden-1-yl)amino)ethanol, reference compound] | – | – | 8.54 | 8.30 to 9.30 | < 6.00 | 5.49 | 5.37 | 6.87 | – | –
7 | CC(C)Oc1cc(C#N)cc(-c2nc(-c3cccc4c3CCC4N)no2)c1 (stereo in doubt) [Compound 97, (R)-3-(3-(1-amino-2,3-dihydro-1H-inden-4-yl)-1,2,4-oxadiazol-5-yl)-5-isopropoxy benzo-nitrile] | – | – | – | < 8.30 | – | – | – | – | – | –
8 | CNCCNC1CCc2c(-c3noc(-c4ccc(OC(C)C)c(C#N)c4)n3)cccc21 (racemic) [Compound 27] | – | – | – | 8.30 to 9.30 | – | – | – | – | – | –
9 | CC(C)N[C@H]1CCc2c(-c3noc(-c4ccc(OC(C)C)c(C#N)c4)n3)cccc21 [Compound 87] | – | – | – | 8.30 to 9.30 | – | – | – | – | – | –
10 | CC(C)Oc1ccc(-c2nc(-c3cccc4c3CC[C@@H]4O)no2)cc1C#N [Compound 6, (S)-5-(3-(1-hydroxy-2,3-dihydro-1H-inden-4-yl)-1,2,4-oxadiazol-5-yl)-2-isopropoxy-benzonitrile] | – | – | – | > 10.30 | – | – | – | – | – | –
11 | N#Cc1cc(-c2nc(-c3cccc4c3CCC4NCCO)no2)ccc1OC[C@@H](O)CO (mixture of isomers) [Compound 104] | – | – | – | < 8.30 | – | – | – | – | – | –
12 | CC(C)Oc1ccc(-c2nc(-c3cccc4c3CCC4N3CC[C@H](N)C3)no2)cc1C#N (mixture of isomers) [Compound 32] | – | – | – | 8.30 to 9.30 | – | – | – | – | – | –
13 | CCOC(=O)N[C@@H]1CCc2c(-c3noc(-c4ccc(OC(C)C)c(C#N)c4)n3)cccc21 [Compound 151] | – | – | – | 8.30 to 9.30 | – | – | – | – | – | –
14 | CC(C)Oc1ccc(-c2nc(-c3cccc4c3CC[C@H]4NCC(=O)N3CCNCC3)no2)cc1C#N [Compound 131] | – | – | – | < 8.30 | – | – | – | – | – | –
15 | CCOCCS(=O)(=O)N[C@@H]1CCc2c(-c3noc(-c4ccc(OC(C)C)c(C#N)c4)n3)cccc21 [Compound 165] | – | – | – | 9.30 to 10.30 | – | – | – | – | – | –
16 | CC(C)Oc1ccc(-c2nc(-c3cccc4c3CCC4NCCN3CCCCC3)no2)cc1C#N (racemic) [Compound 20] | – | – | – | < 8.30 | – | – | – | – | – | –
